The subject of experiment [1] is C. albicans susceptible strain HLY4123. Nature of the experiment: Dose-response curves of test compounds against C. albicans with fluconazole. It is filed as cell-based. The following applies: for EC50: strain HLY4123, in the presence of fluconazole (0.25 μg/mL), mean ± SD of three independent experiments; for activity under the conditions of the assay: strain HLY4123, in combination with fluconazole.

Experiment [2] has as its system partially resistant clinical isolate of C. albicans CaCi-8. The following applies: cited from earlier work; for active concentration: against CaCi-8 with fluconazole, none active below this, ref [48]–[50].

A word on the EC50: it is the concentration giving half of the maximal effect. Take `O=C1[C@H]2[C@@H](Cc3ccccc3)N[C@]3(C(=O)Nc4ccccc43)[C@H]2C(=O)N1Cc1ccccc1` (racemic) [Compound 8, (±)-(3R,3′R,3a′R,6a′S)-3′,5′-Dibenzyl-2′,3′,3a′,6a′-tetrahydro-4′H-spiro [indoline-3,1′-pyrrolo[3,4-c]pyrrole]-2,4′,6′(5′H)-trione]: in experiment [1], the EC50 is about 10 µM. Consider `O=C1[C@H]2[C@@H](Cc3c[nH]c4ccccc34)N[C@]3(C(=O)Nc4ccccc43)[C@H]2C(=O)N1Cc1ccccc1` (racemic) [Compound 9, (±)-(3R,3′R,3a′R,6a′S)-3′-((1H-Indol-3-yl)methyl)-5′-benzyl-2′,3′,3a′,6a′-tetrahydro-4′H-spiro[indoline-3,1′-pyrrolo[3,4-c]pyrrole]-2,4′,6′(5′H)-trione], for which the EC50 in experiment [1] was about 10 µM. `CC(C)(C)OC(=O)NCCCC[C@H]1N[C@]2(C(=O)Nc3ccccc32)[C@H]2C(=O)N(Cc3ccccc3)C(=O)[C@@H]12` (racemic) [Compound 10, (±)-tert-Butyl (4-((3R,3′R,3a′R,6a′S)-5′-benzyl-2,4′,6′-trioxo-3′,3a′,4′,5′, 6′,6a′-hexahydro-2′H-spiro[indoline-3,1′-pyrrolo[3,4-c]pyrrol]-3′-yl)butyl)carbamate]: the EC50 in experiment [1] is over 100 µM. With `O=C1[C@H]2[C@@H](Cc3ccccc3)N[C@]3(C(=O)N(Cc4ccccc4)c4ccccc43)[C@H]2C(=O)N1Cc1ccccc1` (racemic) [Compound 11, (±)-(3R,3′R,3a′R,6a′S)-1,3′,5′-Tribenzyl-2′,3′,3a′,6a′-tetrahydro-4′H-spi ro[indoline-3,1′-pyrrolo[3,4-c]pyrrole]-2,4′,6′(5′H)-trione], in experiment [1], the EC50 is over 10 µM.

For the compound `O=C1[C@H]2[C@@H](Cc3ccccc3)N[C@]3(C(=O)N(Cc4ccccc4)c4ccccc43)[C@H]2C(=O)N1c1ccccc1` (racemic) [Compound 12, (±)-(3R,3′R,3a′R,6a′S)-1,3′-Dibenzyl-5′-phenyl-2′,3′,3a′,6a′-tetrahydro-4′H-spiro[indoline-3,1′-pyrrolo[3,4-c]pyrrole]-2,4′,6′(5′H)-trione], the EC50 in experiment [1] is over 100 µM. In the case of `Cc1c(Cl)ccc2c1NC(=O)[C@]21N[C@H](Cc2ccccc2)[C@@H]2C(=O)N(c3ccccc3)C(=O)[C@@H]21` (racemic) [Compound 13, (±)-(3R,3′R,3a′R,6a′S)-3′-Benzyl-6-chloro-7-methyl-5′-phenyl-2′,3′,3a′, 6a′-tetrahydro-4′H-spiro[indoline-3,1′-pyrrolo[3,4-c]pyrrole]-2,4′,6′ (5′H)-trione], the EC50 in experiment [1] was determined as 0.001 ± 0.0005 µM. As for `Cc1c(Cl)ccc2c1NC(=O)[C@@]21[C@H]2C(=O)N(c3ccccc3)C(=O)[C@H]2[C@H]2CN(C(=O)OC(C)(C)C)CCN21` (racemic) [Compound 14, (±)-tert-Butyl (3R,3a′R,3b′S,9a′S)-6-chloro-7-methyl-1′,2,3′-trioxo-2′-phenyl-2′,3′,3a′,3b′,4′,6′,7′,9a′-octahydrospiro[indoline-3,9′-pyrrolo[3′, 4′:3,4]pyrrolo[1,2-a]pyrazine]-5′(1′H)-carboxylate], the EC50 in experiment [1] worked out at 0.0056 ± 0.003 µM.

For `Cc1c(Cl)ccc2c1NC(=O)[C@@]21[C@H]2C(=O)N(c3ccc(F)cc3)C(=O)[C@H]2[C@H]2CN(C(=O)OC(C)(C)C)CCN21` (racemic) [Compound 15, (±)-tert-Butyl (3R,3a′R,3b′S,9a′S)-6-chloro-2′-(4-fluorophenyl)-7-methyl-1′,2,3′-trioxo-2′,3′,3a′,3b′,4′,6′,7′,9a′-octahydrospiro[indoline-3,9′-pyrrolo[3′,4′:3,4]pyrrolo[1,2-a]pyrazine]-5′(1′H)-carboxylate], the EC50 in experiment [1] is 0.037 ± 0.001 µM.

With `Cc1c(Cl)ccc2c1NC(=O)[C@@]21[C@H]2C(=O)N(c3cc(C(F)(F)F)cc(C(F)(F)F)c3)C(=O)[C@H]2[C@H]2CN(C(=O)OC(C)(C)C)CCN21` (racemic) [Compound 16, (±)-tert-Butyl (3R,3a′R,3b′S,9a′S)-2′-(3,5-bis(trifluoromethyl)phenyl)-6-chloro-7-methyl-1′,2,3′-trioxo-2′,3′,3a′,3b′,4′,6′,7′,9a′-octahydrospiro [indoline-3,9′-pyrrolo[3′,4′:3,4]pyrrolo[1,2-a]pyrazine]-5′(1′H)-carboxy late], in experiment [1], the EC50 was 0.0237 ± 0.01 µM.

Consider `Cc1c(Cl)ccc2c1N(Cc1ccccc1)C(=O)[C@@]21[C@H]2C(=O)N(c3ccccc3)C(=O)[C@H]2[C@H]2CN(C(=O)OC(C)(C)C)CCN21` (racemic) [Compound 17, (±)-tert-butyl (3R,3a′R,3b′S,9a′S)-1-benzyl-6-chloro-7-methyl-1′,2,3′-trioxo-2′-phenyl-2′,3′,3a′,3b′,4′,6′,7′,9a′-octahydrospiro [indoline-3,9′-pyrrolo[3′,4′:3,4]pyrrolo[1,2-a]pyrazine]-5′(1′H)-carboxy late], for which, in experiment [1], the EC50 is over 100 µM.

With `Cc1cccc2c1NC(=O)[C@@]21[C@H]2C(=O)N(c3ccccc3)C(=O)[C@H]2[C@H]2CN(C(=O)OC(C)(C)C)CCN21` (racemic) [Compound 22, (±)-tert-Butyl (3R,3a′R,3b′S,9a′S)-7-methyl-1′,2,3′-trioxo-2′-phenyl-2′, 3′,3a′,3b′,4′,6′,7′,9a′-octahydrospiro[indoline-3,9′-pyrrolo[3′,4′:3,4]pyrrolo[1,2-a]pyrazine]-5′(1′H)-carboxylate], the 50% effective concentration (EC50) in experiment [1] came to 0.213 ± 0.08 µM. On the same count and under the same terms, the value for `Cc1ccc2c(c1C)NC(=O)[C@@]21[C@H]2C(=O)N(c3ccccc3)C(=O)[C@H]2[C@H]2CN(C(=O)OC(C)(C)C)CCN21` (racemic) [Compound 23, (±)-tert-Butyl (3R,3a′R,3b′S,9a′S)-6,7-dimethyl-1′,2,3′-trioxo-2′-phenyl-2′,3′,3a′,3b′,4′,6′,7′,9a′-octahydrospiro[indoline-3,9′-pyrrolo[3′,4′:3,4]pyrrolo[1,2-a]pyrazine]-5′(1′H)-carboxylate] was 0.0057 ± 0.006 µM. On to `Cc1c(Cl)ccc2c1NC(=O)[C@@]21[C@H]2C(=O)N(c3ccccc3)C(=O)[C@H]2[C@H]2CNCCN21` (racemic) [Compound 26, (±)-(3R,3a′R,3b′S,9a′S)-6-chloro-7-methyl-2′-phenyl-3a′,4′,5′,6′,7′,9a′-hexahydrospiro[indoline-3,9′-pyrrolo[3′,4′:3,4]pyrolo[1,2-a]pyrazine]-1′,2,3′(2′H,3b′H)-trione], for which, in experiment [1], the concentration for a half-maximal effect (EC50) is about 10 µM. `COC(=O)CCCCCCCCC(=O)N1CCN2[C@H](C1)[C@@H]1C(=O)N(c3ccccc3)C(=O)[C@@H]1[C@@]21C(=O)Nc2c1ccc(Cl)c2C` (racemic) [Compound 27, (±)-methyl 10-((3R,3a′R,3b′S,9a′S)-6-chloro-7-methyl-1′,2,3′-trioxo-2′-phenyl-2′,3′,3a′,3b′,4′,6′,7′,9a′-octahydrospiro [indoline-3,9′-pyrrolo[3′,4′:3,4]pyrrolo[1,2-a]pyrazin]-5′(1′H)-yl)-10-oxodecanoate]: the concentration giving a half-maximal response (EC50) in experiment [1] came out at 0.0379 ± 0.009 µM. On to `CO[C@H](C(=O)N1CCN2[C@H](C1)[C@@H]1C(=O)N(c3ccccc3)C(=O)[C@@H]1[C@@]21C(=O)Nc2c1ccc(Cl)c2C)c1ccccc1` (racemic) [Compound 28, (±)-(3R,3a′R,3b′S,9a′S)-6-chloro-5′-((S)-2-methoxy-2-phenylacetyl)-7-methyl-2′-phenyl-3a′,4′,5′,6′,7′,9a′-hexahydrospiro [indoline-3,9′-pyrrolo[3′,4′:3,4]pyrrolo[1,2-a]pyrazine]-1′,2,3′(2′H, 3b′H)-trione], for which the concentration giving a half-maximal response (EC50) in experiment [1] worked out at 0.035 ± 0.007 µM.

In the case of `Cc1c(Cl)ccc2c1NC(=O)[C@@]21[C@H]2C(=O)N(c3ccccc3)C(=O)[C@H]2[C@H]2CN(C(=O)CCc3ccccc3)CCN21` (racemic) [Compound 29, (±)-(3R,3a′R,3b′S,9a′S)-6-chloro-7-methyl-2′-phenyl-5′-(3-phenylpropanoyl)-3a′,4′,5′,6′,7′,9a′-hexahydrospiro[indoline-3,9′-pyrrolo[3′,4′:3,4]pyrrolo[1,2-a]pyrazine]-1′,2,3′(2′H,3b′H)-trione], the half-maximal effective concentration (EC50) in experiment [1] turned out to be 0.0181 ± 0.004 µM.

`Cc1c(Cl)ccc2c1NC(=O)[C@]21N[C@@H](Cc2ccccc2)[C@H]2C(=O)N(c3ccc(F)cc3)C(=O)[C@H]21` [CID 6584729, (1S,3R,3aR,6aS)-1-benzyl-6′-chloro-5-(4-fluorophenyl)-7′-methylspiro[1,2,3a,6a-tetrahydropyrrolo[3,4-c]pyrrole-3,3′-1H-indole]-2′,4,6-trione]: the EC50 in experiment [2] (enhancing the effect of fluconazole against CaCi-8, ref [68]) is 0.12 µM. Regarding `Cc1c(Cl)ccc2c1NC(=O)[C@]21[C@H]2C(=O)N(c3ccccc3)C(=O)[C@H]2[C@@H]2C[C@@H](OC(=O)c3ccccc3)CN21` [Compound 25a, (+)-(3S,3a′S,7′R,8a′S,8b′R)-6-chloro-7-methyl-1′,2,3′-tri oxo-2′-phenyl-2′,3′,3a′,6′,7′,8′,8a′,8b′-octahydro-1′H-spiro[indoline-3,4′-pyrrolo[3,4-a]pyrrolizin]-7′-yl benzoate], the “activity under the conditions of the assay” value in experiment [1] is listed as “almost no activity”.

For the compound `Cc1c(Cl)ccc2c1NC(=O)[C@@]21[C@@H]2C(=O)N(c3ccccc3)C(=O)[C@@H]2[C@H]2C[C@@H](OC(=O)c3ccccc3)CN21` [Compound 25b, (−)-(3R,3a′R,7′R, 8a′R,8b′S)-6-chloro-7-methyl-1′,2,3′-trioxo-2′-phenyl-2′,3′,3a′,6′,7′,8′, 8a′,8b′-octahydro-1′H-spiro[indoline-3,4′-pyrrolo[3,4-a]pyrrolizin]-7′-yl benzoate], the “activity under the conditions of the assay” value in experiment [1] is “almost no activity”. Regarding `O=C(c1ccc(Cl)cc1)N1CCN(c2ccnc3cc(Cl)ccc23)CC1` [ML189], the active concentration in experiment [2] was at least 0.7 µM. Take `COC(=O)Cn1nc(-c2cccc(OC)c2)c2ccccc21` [ML212]: the active concentration in experiment [2] was at least 0.7 µM. As to `O=C(Cn1c2ccccc2c2nc3n(c(=O)c21)CCS3)N1CCCC1` [ML229], the active concentration in experiment [2] was at least 0.7 µM. For the compound “(±)-tert-Butyl (3R,3a′R,3b′S,9a′S)-2′-benzyl-1′,2,3′-trioxo-2′,3′,3a′,3b′, 4′,6′,7′,9a′-octahydrospiro[indoline-3,9′-pyrrolo[3′,4′:3,4]pyrrolo[1,2-a]pyrazine]-5′(1′H)-carboxylate [Compound 19]”, in experiment [1], the EC50 was over 100 µM.
